How the values were obtained:
[1] = test system: MSCs; experiment: Cytotoxicity (MTT assay) of UC2288 in purified MSCs; assay type: cell-based, mouse (C57BL/6)
Experimental: All procedures with animals were approved by the IACUC at the University of Wisconsin-Milwaukee. The mice used for this study were C57BL/6 (Charles River, MA). Fifteen 8-week-old male mice were euthanized by CO2 inhalation. After checking for a heartbeat, a cervical dislocation was performed followed by checking for any signs of breathing again for precautionary measures. After confirming that there were no signs of breathing, the tibia and the femur were extracted and placed in phosphate buffered saline (PBS) (Corning Inc., NY). A bone marrow flush with a 23-gauge, 0.5-inch needle (Becton Dickinson, NJ) was performed in a biosafety hood and the pelleted bone marrow cell suspension was plated in a 60×15 mm Primaria cell culture dish (Corning Inc., NY) in MesenCult Basal Medium (Mouse) that contained 50 mL MesenCult 10× Supplement (Mouse) and 0.5 mL MesenPure 1000× (STEMCELL Technologies, Vancouver, Canada). The plates were incubated at 37° C. in a 5% CO2 humidified atmosphere. After 24 hours, half the medium volume was removed, and fresh medium was added. The media in the cultures were renewed every other day. As the cells reached confluency, they were detached by treatment with 0.5% Trypsin-EDTA (Thermo Fisher Scientific, MA) and replated into a 100×20 mm Primaria cell culture dish (Corning Inc.) and eventually into a T-25-cm^2 Primaria flask (Corning Inc, NY). […]

[2] = test system: MSCs; experiment: Osteogenic differentiation of MSCs, Alizarin Red S staining of calcium deposits; assay type: cell-based, mouse (C57BL/6)
Experimental: In order to test whether UC2288 can improve osteogenic capacity of MSCs, the purified MSCs were differentiated into osteoblasts after interaction with UC2288. For osteogenic differentiation experiment, 84,000 cells were added into wells of a 24-well plate (Corning Inc., NY). Each concentration of UC2288, i.e., 2.5 μM, 5 μM, and 10 μM were tested in triplicates along with their controls which had no drugs but simply DMEM media and incubated for a period of 24- and 48-hours. After the designated time periods, the drug solutions were aspirated out of each well. To test for osteogenesis at different concentrations, relevant media were added to cells and renewed every other day for up to 21 days.
The osteogenic media consisted of 1 nM of dexamethasone, 50 μg/mL of L-Ascorbic acid, and 10 mM of β-glycerophosphate (Sigma-Aldrich, MO) in 50 mL DMEM.
After 21 days of culture, cells were stained following the appropriate staining protocol. […]
This experiment tested the ability of cells that interacted with the UC2288 drug to generate bone-forming osteoblast cells. […] After staining each well by following an osteogenic staining protocol, the area of the stains was analyzed using ImageJ and the data were graphed in GraphPad Prism. […]

[3] = test system: fractured tibiae; experiment: MicroCT imaging of fracture healing in mice after post-fracture UC2288 injection (Example 4); assay type: in vivo; conditions: five 0.1 mL 10 μM injections at days 3, 5, 7, 10, 14; 21 days post-injury
Experimental: Male wildtype mice (n=10) aged between 8-10 weeks were selected for this study. Future experiments will also include aged mice (e.g., ˜18 months of age). […] The mice had their tibiae fractured at the beginning of the study. Five mice were considered controls and received five injections of saline solution at days 3, 5, 7, 10, and 14 post-injury. The other five mice were injected five times with 0.1 mL 10 μM of UC2288 solution at days 3, 5, 7, 10, and 14 post-injury. At 21 days post-injury, mice were sacrificed, and their tibiae were excised. These bones were imaged using a microCT system that can differentiate between bone and soft tissue.

[4] = test system: Sp7 (Osterix); experiment: Gene expression analysis (qPCR, ΔΔCt) in HuMSCs: Sp7; assay type: cell-based, human; conditions: 7 days
Experimental: (§1) Human umbilical cord derived mesenchymal stem cells (HuMSCs) were plated in a 24 well plate at a density of 30,000 cells per well. Samples were divided as controls—no drug, no differentiation media; osteogenic control—no drug, DMEM media supplemented with factors to induce osteogenesis including dexamethasone, L-ascorbic acid, and beta-glycerol phosphate; 2.5, 5, and 10 μM wells consisted of DMEM media supplemented respective concentrations of UC2288. Media was renewed in all wells every other day. After 7 days, all samples were processed to extract total RNA. Next, cDNA was produced and qPCR was performed for gene expression analyses. Three genes of interest were analyzed-RunX2, Sp7 (Osterix), and CDKN1A (p21). RunX2 and Sp7 are genes responsible for osteoblast differentiation and take part in osteogenesis. To analyze the data, the ΔΔCt method was employed against an 18s endogenous control and DMEM media without differentiation factors or drugs as reference controls. The ΔΔCt can be described as:
(§2) Relative mRNA expression of sample=2^−ΔΔCt of sample,
(§3) where ΔΔCt of sample=(Ct of sample−Ct of 18s of sample)−(Ct of reference control−Ct of 18s of reference control).

[5] = test system: RunX2; experiment: Gene expression analysis (qPCR, ΔΔCt) in HuMSCs: RunX2; assay type: cell-based, human; conditions: 7 days
Experimental: as §1, §2, §3

[6] = test system: CDKN1A (p21); experiment: Gene expression analysis (qPCR, ΔΔCt) in HuMSCs: p21; assay type: cell-based, human; conditions: 7 days
Experimental: as §1, §2, §3

[7] = test system: transverse tibial fracture; experiment: Microtomography imaging of transverse tibial fracture callus (Example 6); assay type: in vivo, C57BI/6 wildtype mice; conditions: 10 μM, 0.1 mL at days 3, 5, 7, 10, 14; 4 weeks post-fracture
Experimental: All protocols were approved by IACUC at UWM. C57BI/6 wildtype mice at 8 weeks of age were administered a transverse tibial fracture. The mice were injected with 10 μM of UC2288 solution at a volume of 0.1 mL at days 3, 5, 7, 10, and 14. The mice were sacrificed 4 weeks post-fracture and their tibiae were excised. The bone samples were placed in 10% formalin for two days followed by placement in 70% ethanol until they were ready for microCT imaging. Each sample was placed on a holder and few drops of phosphate buffered saline were placed along with the sample. The sample was scanned using a microCt (Zeiss Xradia Versa X-ray microscope) scanner at a 15 μm thickness per slice. The data was contoured using MIMICS (Materialise NV) followed by data analysis via Python. […] See FIG. 7A-B. The black and white images show where bone was automatically thresholded via ImageJ.

## O=C(Nc1ccc(Cl)c(C(F)(F)F)c1)N[C@H]1CC[C@H](Oc2ccc(C(F)(F)F)cn2)CC1 [UC2288, 1-(4-chloro-3-(trifluoromethyl)phenyl)-3-((1r,4r)-4-((5-(trifluoromethyl)pyridin-2-yl)oxy)cyclohexyl)urea]
[1]; 2.5, 5 and 10 μM UC2288, 24 hours
  proliferation of the MSCs (MTT, absorbance 540 nm) versus positive control DMEM media: No significant difference
[1]; 2.5, 5 and 10 μM UC2288, 48 hours
  proliferation of the MSCs (MTT, absorbance 540 nm) versus positive control DMEM media: No significant difference
[2]; 5 μM UC2288 at 24 hr
  area of osteogenic stained cells, comparison of 2.5, 5 and 10 μM: most osteogenic stained cells
[2]; 10 μM UC2288 for 24 hr, 21 days osteogenic culture
  staining for calcium deposits in osteoblasts from MSCs versus DMEM control: Greater staining
[3]
  bone formation/healing versus saline control mice (microCT): more bone formation/healing
[4]; 5 μM
  Sp7 expression compared to the osteogenic positive control: increased osteogenic potential
[4]; 10 μM
  Sp7 expression compared to the osteogenic positive control: increased osteogenic potential
[4]; all concentrations (2.5, 5, 10 μM)
  Sp7 expression compared to the control: increased osteogenic gene expression
[5]; 5 μM
  effect on osteogenic markers compared to 2.5 and 10 μM: most significant effect
[5]; 2.5, 5, 10 μM
  RunX2 expression compared to controls: increased osteogenic potential
  RunX2 expression compared to the osteogenic control: less than the osteogenic control
[6]; 2.5 μM
  expression of p21 in HuMSCs: reduced p21 expression
[6]; 5 μM
  expression of p21 in HuMSCs: reduced p21 expression
[6]; 10 μM
  expression of p21 in HuMSCs: increased expression
[7]
  callus Surface Area (microCT): 0.1147 mm^2
  callus Surface Area Pixels (microCT): 7611878.877 Pixels
  callus Volume (microCT): 0.4206 mm^3
  callus Volume Pixels (microCT): 27919486 Pixels
